According to ChEMBL document CHEMBL1201862, “PubChem BioAssay data set” (2004):
Activity calls are given as the source filed them.

Columns and labels:
[1] = non-specific cell cytotoxicity, dose response, cytotoxicity control for PAX8 inhibitor project, plate reader, dry powder samples (AID 743021); format: functional, cell-based
[2] = nonselective inhibitors of cellular cAMP signaling, dose response, counter-screen for MC4R biased antagonist project, cell-based, TR-FRET cAMP detection (AID 602305); format: functional;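 further: U2OS cells stimulated with forskolin near its EC80 as the cAMP inducer; potency is for inhibition of forskolin-stimulated cAMP signaling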
[3] = biological target: T1, Oxysterols receptor LXR-beta (Homo sapiens, UniProt P55055); experiment: LXR agonists, Gal4 luciferase reporter, dose response, counter-screen for ssDAF-12 agonist project, cell-based, luminescence, HEK293, S. stercoralis campaign (AID 720737); format: functional; settings: read-out: IC50 (the source's name)
T1 sequence (P55055 whole entry): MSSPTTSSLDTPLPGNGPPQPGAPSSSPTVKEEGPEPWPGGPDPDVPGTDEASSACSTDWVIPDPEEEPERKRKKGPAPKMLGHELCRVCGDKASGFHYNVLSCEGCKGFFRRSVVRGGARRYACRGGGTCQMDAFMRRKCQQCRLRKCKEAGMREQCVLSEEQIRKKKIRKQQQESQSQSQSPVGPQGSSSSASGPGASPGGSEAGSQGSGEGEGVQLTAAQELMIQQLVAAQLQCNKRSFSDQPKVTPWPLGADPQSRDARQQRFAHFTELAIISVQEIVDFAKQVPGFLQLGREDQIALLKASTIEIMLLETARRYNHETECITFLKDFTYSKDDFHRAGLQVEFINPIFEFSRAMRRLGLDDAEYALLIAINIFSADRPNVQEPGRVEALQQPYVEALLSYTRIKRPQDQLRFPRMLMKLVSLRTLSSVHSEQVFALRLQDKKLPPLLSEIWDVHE

[4] = Luminescence-based cell-based high throughput dose response assay to identify activators of the DAF-12 from the parasite S. stercoralis (ssDAF-12).; format: functional
[5] = biological target: T2, Hexokinase HKDC1 (Homo sapiens, UniProt Q2TB90); experiment: HKDC1 hexokinase inhibitors, dose response, biochemical, W721R variant (AID 504729); format: functional
T2 sequence (Q2TB90 whole entry): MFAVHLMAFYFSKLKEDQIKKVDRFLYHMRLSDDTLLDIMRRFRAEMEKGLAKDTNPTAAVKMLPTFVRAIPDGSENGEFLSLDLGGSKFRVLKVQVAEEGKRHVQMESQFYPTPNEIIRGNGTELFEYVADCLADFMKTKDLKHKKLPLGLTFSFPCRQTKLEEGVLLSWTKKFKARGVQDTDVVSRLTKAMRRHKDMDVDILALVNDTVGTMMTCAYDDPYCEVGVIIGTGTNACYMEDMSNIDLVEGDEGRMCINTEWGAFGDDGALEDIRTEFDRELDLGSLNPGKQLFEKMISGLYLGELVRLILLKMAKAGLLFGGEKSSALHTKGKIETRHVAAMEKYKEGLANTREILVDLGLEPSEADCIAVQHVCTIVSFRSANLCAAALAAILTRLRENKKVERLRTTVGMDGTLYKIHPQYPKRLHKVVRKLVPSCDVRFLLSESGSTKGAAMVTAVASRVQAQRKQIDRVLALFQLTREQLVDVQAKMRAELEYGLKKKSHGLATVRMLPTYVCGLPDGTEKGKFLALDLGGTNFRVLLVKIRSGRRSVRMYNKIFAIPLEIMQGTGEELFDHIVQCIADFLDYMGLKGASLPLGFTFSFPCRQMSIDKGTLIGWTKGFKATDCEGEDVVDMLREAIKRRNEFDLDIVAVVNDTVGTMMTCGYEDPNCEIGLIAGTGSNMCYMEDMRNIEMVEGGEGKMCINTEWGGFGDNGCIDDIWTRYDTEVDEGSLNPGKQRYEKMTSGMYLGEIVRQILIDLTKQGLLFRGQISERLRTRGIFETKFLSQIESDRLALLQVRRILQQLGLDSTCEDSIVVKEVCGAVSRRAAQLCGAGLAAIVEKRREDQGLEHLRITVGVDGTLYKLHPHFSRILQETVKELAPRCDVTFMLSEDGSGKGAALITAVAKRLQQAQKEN

[6] = test system: Vero; experiment: Vero cell cytotoxicity, cytotoxicity control for flavivirus capping enzyme inhibitors (AID 588742); format: functional; settings: Chlorocebus sabaeus
[7] = biological target: T3, Zinc finger protein mex-5 (Caenorhabditis elegans, UniProt Q9XUB2); experiment: MEX-5/TCR-2 RNA interaction inhibitors, dose response, biochemical, C. elegans, fluorescence polarization (AID 1960)
T3 sequence (Q9XUB2 whole entry): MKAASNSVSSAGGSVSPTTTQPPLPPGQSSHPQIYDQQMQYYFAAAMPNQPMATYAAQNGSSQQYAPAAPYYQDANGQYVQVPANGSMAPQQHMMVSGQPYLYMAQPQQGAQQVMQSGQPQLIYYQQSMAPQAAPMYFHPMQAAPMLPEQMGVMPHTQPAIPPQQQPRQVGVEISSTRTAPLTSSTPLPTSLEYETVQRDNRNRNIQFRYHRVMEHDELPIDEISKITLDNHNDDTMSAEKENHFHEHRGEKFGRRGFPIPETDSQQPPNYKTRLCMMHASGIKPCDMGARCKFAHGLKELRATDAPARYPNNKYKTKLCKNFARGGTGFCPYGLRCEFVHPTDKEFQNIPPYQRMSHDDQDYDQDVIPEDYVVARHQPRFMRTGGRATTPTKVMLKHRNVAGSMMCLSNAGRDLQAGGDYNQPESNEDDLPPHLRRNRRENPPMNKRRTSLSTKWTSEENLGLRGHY

[8] = biological target: Glucose-6-phosphate 1-dehydrogenase (Homo sapiens, UniProt P11413); experiment: human G6PD enzyme inhibitors, dose response, selectivity assay for P. falciparum G6PD inhibitor project, biochemical, fluorescence (AID 504792); format: functional
Sequence of Glucose-6-phosphate 1-dehydrogenase (P11413 whole entry, the tested form may be a part): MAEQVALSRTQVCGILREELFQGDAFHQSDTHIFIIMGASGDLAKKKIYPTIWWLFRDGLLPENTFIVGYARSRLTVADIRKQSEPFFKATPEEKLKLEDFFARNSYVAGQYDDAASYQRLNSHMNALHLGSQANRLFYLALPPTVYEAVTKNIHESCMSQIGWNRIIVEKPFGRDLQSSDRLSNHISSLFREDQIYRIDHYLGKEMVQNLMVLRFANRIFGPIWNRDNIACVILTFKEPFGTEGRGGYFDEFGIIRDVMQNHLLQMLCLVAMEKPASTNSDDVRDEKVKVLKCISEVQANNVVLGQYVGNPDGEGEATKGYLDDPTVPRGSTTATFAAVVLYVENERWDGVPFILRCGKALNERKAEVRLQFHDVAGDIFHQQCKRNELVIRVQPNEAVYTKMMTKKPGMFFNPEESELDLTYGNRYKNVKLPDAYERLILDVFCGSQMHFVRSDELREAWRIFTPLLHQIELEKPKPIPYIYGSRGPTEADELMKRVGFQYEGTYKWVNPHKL

[9] = biological target: T2, Hexokinase HKDC1; experiment: SAR analysis of small molecule inhibitors of hexokinase domain containing I (HKDC1). [Related pubchem assays (depositor defined):AID493160, AID493190]; format: functional
[10] = biological target: T4, Sentrin-specific protease 8 (Homo sapiens, UniProt Q96LD8); format: functional
T4 sequence (Q96LD8 whole entry): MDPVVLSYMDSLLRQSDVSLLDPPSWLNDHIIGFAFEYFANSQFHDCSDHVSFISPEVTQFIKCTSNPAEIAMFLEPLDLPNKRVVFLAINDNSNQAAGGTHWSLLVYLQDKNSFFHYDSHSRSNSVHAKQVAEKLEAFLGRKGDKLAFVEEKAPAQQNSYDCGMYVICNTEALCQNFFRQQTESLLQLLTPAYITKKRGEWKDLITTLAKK

Cc1nn(-c2ccccc2)c(Cl)c1CN(C(=O)CCl)c1ccc(Cl)cc1
AC50 [1]: 6.9 µM (active) | IC50 [2]: > 64.6 µM (inactive)

Oc1ccccc1/C=C/c1noc(-c2ccccc2O)n1
EC50 [3]: > 67.6 µM (inactive) | IC50 [4]: > 67.6 µM (inactive)

O=C(O)CSc1cc(NS(=O)(=O)c2ccc(Cl)cc2)c2ccccc2c1O
IC50 [5]: 4.67 µM (active) | CC50 [6]: 33.2 µM (active) | EC50 [7]: 6.3 µM (active) | IC50 [8]: 29.9 µM (inactive) | IC50 [9]: 8.9 µM (active)

COc1ccccc1N1C(=O)Cc2ccccc2C1=O
IC50 [10]: > 100 µM (inactive)
